# Experimental data reported in paper PMC10037499, “High-Throughput Screen Reveals the Structure–Activity Relationship of the Antimicrobial Lasso Peptide Ubonodin” (ACS Central Science, 2023).
# Where a SMILES comes first, the peptide text is derived from it.
# Assays:
# E. coli MC1061 = assay: Spot dilution assay of E. coli producing the ubonodin variant from pUboABC; format: cell-based; details: variant in pUboABC backbone in E. coli MC1061, induction with 100 μM IPTG, ten-fold serial dilutions, biological duplicates
# Method in brief: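 E. coli MC1061 carrying the plasmids was grown at 37 °C in LB with 100 μg/mL ampicillin to OD600 0.3, then induced with 100 μM IPTG. Samples taken before induction and at later timepoints were PBS-washed, spotted as ten-fold dilutions on ampicillin/0.2% glucose LB plates, and imaged after 16 h at 37 °C.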
# [1] = test system: RNA polymerase (RNAP) in E. coli MC1061; assay: High-throughput growth-based screen with NGS (enrichment value) for RNA polymerase inhibition; format: cell-based; set-up: key to Experimental observation (enrichment observed in the screen): Dropout: Many variants inhibit RNAP so strongly that they cannot be detected by NGS after IPTG induction (referred to as dropout variants); details: Table S4; variants whose MICs were tested
# Method in brief: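 E. coli MC1061 carrying ubonodin single/double variant plasmid libraries was grown and induced with 10 µM or 100 µM IPTG; surviving colonies were sequenced by NGS. Enrichment value = log2 of variant frequency post-IPTG over frequency in the cloning transformation library; depletion indicates RNAP inhibition.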
# B. cenocepacia AU0756 = test system: B. cenocepacia AU0756
# Method in brief: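 Ubonodin variants were tested by broth microdilution following CLSI guidelines against clinical Burkholderia cenocepacia isolates AU0756 and AU24362.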
structure (smiles),measurement,setting,value
"CC[C@H](C)[C@H](NC(=O)[C@H](Cc1c[nH]cn1)NC(=O)[C@H](CCSC)NC(=O)[C@@H]1CCCN1C(=O)[C@@H](NC(=O)[C@H](CC(N)=O)NC(=O)[C@H](Cc1ccccc1)NC(=O)[C@H](Cc1ccc(O)cc1)NC(=O)[C@@H]1CCC(=O)NCC(=O)NCC(=O)N[C@@H](CC(=O)O)C(=O)NCC(=O)N[C@@H](CO)C(=O)N[C@@H]([C@@H](C)CC)C(=O)N[C@@H](C)C(=O)N1)C(C)C)C(=O)NCC(=O)N[C@@H](CC(=O)O)C(=O)N[C@@H](Cc1c[nH]c2ccccc12)C(=O)N[C@@H](CCC(N)=O)C(=O)N[C@H](C(=O)N[C@@H](CCSC)C(=O)N[C@@H](CC(=O)O)C(=O)N[C@@H](CO)C(=O)NCC(=O)N[C@@H](Cc1ccc(O)cc1)C(=O)N[C@@H](Cc1ccc(O)cc1)C(=O)NCC(=O)O)[C@@H](C)CC [R12V H17G] (HELM PEPTIDE1{G.G.D.G.S.I.A.E.Y.F.N.V.P.M.H.I.G.D.W.Q.I.M.D.S.G.Y.Y.G}$PEPTIDE1,PEPTIDE1,1:R1-8:R3$$$V2.0)",Inhibits Growth,E. coli MC1061,Yes
same,Experimental observation (enrichment observed in the screen),[1],Dropout
same,B. cenocepacia AU0756 MIC,B. cenocepacia AU0756,0.25 to 0.5 µM
